Assay results as given in a melting point compilation (Tetko et al.; mined from patent text by program, amines drawn as free bases though some values may be those of a salt).

| SMILES | melting point [°C] |
| --- | --- |
| CCCCCCC(C)(C)c1ccc([C@@H]2CC(=O)C[C@H](C)C2)c(O)c1 (relative stereo) | 95 to 98 |
| CC1=NN=C(C=Cc2cccc(F)c2)c2cc3c(cc2C1)OCO3 | 161 to 162 |
| O=c1c(Cc2ccncc2)cc2cccnc2n1-c1cccc([N+](=O)[O-])c1 | 230 |
| CCCCCCCCCCCCCCCCNc1ccc(C(=O)NCCS(=O)(=O)O)cc1 | 190 to 220 |
| CC(C)(C)OC(=O)CN1CCC2(CCNCC2)OC1=O | 110 to 115 |
| CC(C(=O)Nc1ccc(-n2nc(C(F)(F)F)cc2C(F)(F)F)cc1)c1ccc(C(=O)c2cccs2)cc1 (stereo not drawn) | < 80 |
| CC(=O)C(Cl)=CSC(C)(C)C | 73 |
| CCCc1c(OCCCCCOc2ccc(C(=O)CCCC(=O)O)cc2CCC(=O)O)ccc2c1OCCC2=O | 151 to 154 |
| NC1=Nc2ccc(Br)cc2C2CCCC12F (stereo not drawn) | 220 |
| COc1cc(-c2ccc(=O)[nH]n2)ccc1OC(F)F | 170 |
| CCOC(=O)c1c(C(F)(F)F)nn(C)c1N | 120 to 121 |
| CC(C)(C)c1cc(C2SC(CC(=O)N3CCCC3)C(=O)N2CCCCl)cc(C(C)(C)C)c1O (stereo not drawn) | 193 to 194 |
| CC(C)(C)c1cc(C=O)cc(Br)c1O | 126 |
| CC1=C(C#N)C(=C(C#N)C#N)OC1(C)c1ccc(Cl)c(Cl)c1 (stereo not drawn) | 226 to 229 |
| N#CCn1nnc(N)n1 | 105 to 106 |
| CC(C)(C)OC(=O)n1[nH]c2c(cnc3c([N+](=O)[O-])cccc32)c1=O | > 250 |
| O=C(c1ccccc1)N1CCC(O)CC1 | 91.5 to 92 |
| COCc1cc(-c2nnc3c4ccccc4c(OCc4ncn(C)n4)nn23)no1 | 236 |
| COc1cc2c(cc1OC)CCCC(C(=O)N1CCN(Cc3cc(OC)c(OC)c(OC)c3)CC1COC(C)=O)=C2 (stereo not drawn) | 135 to 139 |
| Cc1cccc(-n2c(-c3sc(NC(=O)c4ccccc4)nc3-c3ccccc3)nc3ccccc3c2=O)c1 | > 275 |

| SMILES | melting point [°C] |
| --- | --- |
| CC(=O)OCC1=C(C(=O)O)N2C(=O)C(NC(=O)Cn3ccnc3S(C)(=O)=O)C2SC1 (stereo not drawn) | 223 |
| O=Cc1cccn2ccnc12 | 137 to 139 |
| O=[N+]([O-])c1ccc2c(c1)CNCCS2 | 104 to 105 |
| COc1cc2c(cc1OC)C(C(C#N)SCCCO)=NCC2 (stereo not drawn) | 155 to 156 |
| COC1(c2cccc(OCc3ccc(-n4ccnc4C)cc3F)c2)CCOCC1 | 121 to 122 |
| CNc1nc(-c2cccc(-c3ccc(C)c(C)c3)c2)c2cc(OC)c(OC)cc2n1 | 149 to 151 |
| CC(C)N1CCC(=C2c3ccn(C)c3CCn3ccnc32)CC1 | 178 |
| CCCCNC(=S)N1CCN(c2cnccn2)CC1 | 97.5 to 98.5 |
| COc1n[nH]c(=O)n1O | 211 |
| COc1cc2ncc(C#N)c(Nc3ccc(F)c(Cl)c3)c2cc1NC(=O)C=CCN(C)CCO | 210 to 214 |
| O=C(Nc1ccc(N2CCOCC2)c(C(F)(F)F)c1)c1ccc(F)c(OCc2cnc3ccccc3c2)c1 | 81 to 84 |
| COC1OC2OC3(C)CCC4C(C)CCC(C1C)C24OO3 (stereo not drawn) | 73 to 74.5 |
| COc1cc2sc(-c3cccnc3)nc2cc1N=C=S | 164 to 166 |
| CCCc1c(OCCCS(=O)(=O)c2ccc(C(=O)NCC(=O)OCC)cc2)ccc(C(C)=O)c1O | 138 to 140 |
| COC(=O)N1CC(=O)N(C)c2ccc(F)cc21 | 206 to 208 |
| CCOC(=O)C1CCN(c2nc(COc3ccc(CO)cc3OC)c(C)s2)CC1 | 84 to 85 |
| CC(F)C(C)(N)C(=O)O (stereo not drawn) | 226 |
| C=C(Nc1nc(-c2ccccc2)c(-c2nc3ccccc3c(=O)n2-c2ccccc2)s1)c1ccco1 | 271 to 272 |
| CCCC1(C)OC(=O)C(c2ccc(F)c(F)c2)=C1c1ccc(S(C)(=O)=O)cc1 (stereo not drawn) | 89 to 90 |
| CN(CCN1CCN(c2ccc(C(F)(F)F)cc2)CC1)C[C@@]1(C)Cn2cc([N+](=O)[O-])nc2O1 | 148 to 150 |

| SMILES | melting point [°C] |
| --- | --- |
| Cc1c(N2CCNC(C)C2)c(F)cc2c(=O)c(C(=O)O)cn(C3CC3)c12 (stereo not drawn) | 206 to 208 |
| NCc1ccc(C(=O)Nc2ccc(-n3nc(C(F)(F)F)cc3C(F)(F)F)cc2)c(Cl)c1 | 90 to 93 |
| CCC(OC(=O)CO)c1ccc(Cl)c2nc3n(c12)CCCN3c1ccc(Cl)cc1Cl (stereo not drawn) | 191 to 193 |
| Cn1ccc(=O)c(-c2cccc(C(F)(F)F)c2)c1 | 122 to 123 |
| COc1cc(C(=O)Nc2cccc3c2CCN(C)C3)cc(OC)c1OC | 143 |
| Cc1ccc(N)c(OCCOc2cc(C(=O)OC(C)(C)C)ccc2N)c1 | 154 to 156 |
| CCc1c(CCNC(=O)CCCCC(=O)NC(C)(C)Cc2ccc3c(c2CC)OCO3)ccc(OC)c1OC | 103 to 104 |
| N=c1[nH]c2ccc(Cl)cc2c2nc(-c3ccc(Br)o3)nn12 | 282 to 283 |
| NCC(O)C(Oc1ccc(C(F)(F)F)cc1)c1ccccc1 (stereo not drawn) | 120 to 122 |
| CC1(C)CC(n2ccc(-c3ccc(F)cc3)c2-c2ccncc2)CC(C)(C)N1 | 118 to 119 |
| CC(=O)N1CCc2c(sc(C)c2CCBr)C1 | 93 to 95 |
| CCC(=O)N(C(=O)CC)c1cc(-c2c(-c3cccc(C)c3)nc3cccnn23)ccn1 | 210 to 211 |
| CC1(C)CCC(C)(C)c2cc3c(cc21)CCC=C3Cc1ccc(C(=O)O)cc1 | 212 to 214 |
| COc1ccc(-c2nnn(-c3cc(C)on3)c2N)cc1 | 136 to 141 |
| Cc1cc(OS(=O)(=O)c2c(F)cccc2F)cc2c(C3CCN(C)CC3)cn(C)c12 | 139 |
| Brc1ccc2nc(N3CCOCC3)nn2c1 | 136 |
| COc1cc(C(C)=O)ccc1OCCCN1CCN(c2n[nH]c3cc(Cl)ccc23)CC1 | 132 to 134 |
| CCOC(=O)c1c(CCCn2cncn2)nc2sc3cnccc3c2c1-c1ccc(OC)c(OC)c1 | 127 to 129 |
| C#CCN(Cc1cc2c(=O)[nH]c(C)nc2cc1Br)c1ccc(C(=O)NC(CO)c2cccc([N+](=O)[O-])c2)cc1 (stereo not drawn) | 221 to 232 |

Further lines, results first:

| melting point [°C] | SMILES |
| --- | --- |
| 71 to 73 | CN(C)CCCOc1ccccc1C=NCC(N)=O |
| 65 to 66 | CCCCCCCCCCCCc1ccccc1C(SCC(=O)O)C(=O)O (stereo not drawn) |
| 175 to 177 | COc1ccc2c3ccc(OC)cc3n(CCNC(=O)CS(C)(=O)=O)c2c1 |
| 87 to 89 | CCCCC(NS(=O)(=O)c1ccc(Cl)cc1)C(=S)Nc1ccc(CCC(=O)OC)cc1 (racemic) |
| 300 to 302 | Cc1ccccc1C=C1CCc2c1nc1ccc(C(=O)O)cn1c2=O |
| 162 to 166 | O=C1N(Cc2cn(C(c3ccccc3)(c3ccccc3)c3ccccc3)cn2)CCN1c1cccc(Cl)c1 |
| 236 | COc1cc(NC(=O)Oc2ccccc2)ccc1S(=O)(=O)n1c(=O)n(C2CCCCC2)c2cc(Cl)ccc21 |
| 210 to 211 | NC(=O)N1C(=O)Cc2cc(C(=O)c3ccccc3)ccc21 |
| 213 to 232 | O=C(c1ccccc1)N1CCc2[nH]c3cc(-c4ccccc4)ccc3c2CC1 |
| 159 to 161 | O=C(O)c1cc(OCCCCCCc2cccc(O)c2O)ccc1O |
| 119 to 121 | CCOC(Cc1ccccc1)=C1SC(=S)N(c2ccccc2)C1=O |
| 139 | Cc1cc(C#N)cc(C(=O)Nc2cccc(F)c2)n1 |
| 195 | COC(=O)C1=C(C)NN=C(c2ccco2)C1c1ccccc1Cl (stereo not drawn) |
| 112 | CCCC(=O)c1cnc2c(OCC)nccc2c1Nc1ccccc1C |
| 178 to 182 | CN1CCCCC1CCc1ccccc1NC(=O)c1ccc(O)cc1 (stereo not drawn) |
| 152 to 154 | CC(=O)NC[C@H]1CN(c2cc(F)c(N3CCC(Cc4noc(-c5ccccc5)n4)CC3)c(F)c2)C(=O)O1 |
| 142 to 143 | CCOC(=O)c1ccc(Cn2cnc3ncccc32)cc1 |
| 201 to 205 | O=S1(=O)N=C(NCCCCc2ccccc2)Nc2cc(Cl)sc21 |
| 124 to 127 | COC(=O)c1ccc(OCCCNc2ccc3c(c2)OCO3)cc1 |
| 154 to 155 | Cc1cc(-c2ccccc2)nc2nc(SCc3ccccc3)nn12 |

| melting point [°C] | SMILES |
| --- | --- |
| 228 to 230 | O=C(O)Cc1ccnc2c(NC(=O)c3c(Cl)cccc3Cl)cccc12 |
| 216 | O=C(Nc1cc(S(=O)(=O)N(CCO)CCO)sc1Cl)c1cnn2c(C(F)F)cc(-c3ccc(C(F)(F)F)cc3)nc12 |
| 130 to 132 | O=C(OCCN1CCNC1=O)c1ccccc1 |
| 88 to 90 | CC(CCCc1ccccc1)Oc1cc(O)c2c(c1)NCCC2=O (stereo not drawn) |
| 108 to 110 | O=C(c1nc2ccccc2s1)C1CCN(CCc2ccccc2)CC1 |
| 130 to 133 | O=S(=O)(Nc1nc(Cl)cnc1OCc1ccco1)c1ccc(Cl)s1 |
| 118 to 121 | Cc1cc(-c2cc3cc(OCCNC[C@H](O)COc4ccccc4F)ccc3o2)no1 |
| 118 to 119 | CCC1(CCCCN2CCN(c3ccc(F)cc3)CC2)C(=O)Nc2ccccc21 (stereo not drawn) |
| 48 to 50 | OCC(COCCCCCCCCOc1ccc(-c2ccccc2)cc1)OCc1ccccc1 (stereo not drawn) |
| 132 to 134 | COc1cc(N)c(Cl)cc1C(=O)NCC1CCN(CCCOc2ccccc2)CC1 |
| 112 to 113 | NS(=O)(=O)c1ccccc1C1=CCCC1 |
| 139 to 141 | OC(c1ccc(Cl)cc1)(c1ccc(Cl)cc1)c1nccn1COCc1ccccc1 |
| 180 | Cc1csc2nc3ccccc3c(=O)n12 |
| 89 to 90 | CCN(CC)C(=O)NCCOC(=O)c1cc(Oc2ccc(C(F)(F)F)cc2Cl)ccc1[N+](=O)[O-] |
| 115 to 117 | CC(CCCS(C)(=O)=O)C(c1cc(F)ccc1F)S(=O)(=O)c1ccc(Cl)cc1 (stereo not drawn) |
| 227 to 229 | Cc1cc2c(-c3ccccc3C)c(NC(=O)Nc3ccc(F)cc3F)c(=O)n(C)c2cc1Cl |
| 100 to 111 | c1ccc(OCc2ccc(OCc3ccc4ccccc4n3)cc2)cc1 |
| 120 | CCN(C(=O)n1nnc2cc(Cl)c(Cl)cc21)c1ccccc1 |
| 74 to 75 | COC(=O)CCCNC(=O)C[C@H]1O[C@H](c2cccc(OC)c2OC)c2cc(Cl)ccc2N(CC(C)(C)C)C1=O |
